Measured values: US12227500B2, “Substituted pyrrolo[2,3-b]pyridines for suppressing toxic endoplasmic reticulum stress” (THE TRUSTEES OF COLUMBIA UNIVERSITY IN THE CITY OF NEW YORK, priority 2018, dated 2025)
pEC50: −log10 of the molar value. Read-outs that look alike come from different tables or passages of the source.

Legend:
[1] = tested on: human ES motor neurons carrying the ALS-causing SOD1^A4V mutation; assay: cells; format: cell-based; conditions: 72 h, 72 h; for pEC50 / viability at 1 µM / Emax: Homo sapiens, Neuron; for pEC50 / Emax / EC50: CPA 33 μM; for pEC50: read-out: EC50; for viability at 1 µM: CPA (33 μM) + compound (1 μM), read-out: Motor Neuron Survival, % untreated; for Emax: read-out: Emax (MN survival % untreated)
Method: Next, survival assays were performed with all the analogs at once to generate a low-variability dataset. All compounds were evaluated at concentrations ranging from 0.1-3.0 μM (five-point dilution) in three technical replicates and two biological replicates.

MLK1/MAP3K9 = molecular target: T1, MLK1/MAP3K9 (Homo sapiens, UniProt P80192); assay: Radiolabeled ATP kinase assay (Reaction Biology Corp.), MLK1; format: biochemical; conditions: [Cmpd] 0.1 μM, 10 μM ATP
T1 construct: purchased Reaction Biology Corp
T1 sequence (P80192 whole entry): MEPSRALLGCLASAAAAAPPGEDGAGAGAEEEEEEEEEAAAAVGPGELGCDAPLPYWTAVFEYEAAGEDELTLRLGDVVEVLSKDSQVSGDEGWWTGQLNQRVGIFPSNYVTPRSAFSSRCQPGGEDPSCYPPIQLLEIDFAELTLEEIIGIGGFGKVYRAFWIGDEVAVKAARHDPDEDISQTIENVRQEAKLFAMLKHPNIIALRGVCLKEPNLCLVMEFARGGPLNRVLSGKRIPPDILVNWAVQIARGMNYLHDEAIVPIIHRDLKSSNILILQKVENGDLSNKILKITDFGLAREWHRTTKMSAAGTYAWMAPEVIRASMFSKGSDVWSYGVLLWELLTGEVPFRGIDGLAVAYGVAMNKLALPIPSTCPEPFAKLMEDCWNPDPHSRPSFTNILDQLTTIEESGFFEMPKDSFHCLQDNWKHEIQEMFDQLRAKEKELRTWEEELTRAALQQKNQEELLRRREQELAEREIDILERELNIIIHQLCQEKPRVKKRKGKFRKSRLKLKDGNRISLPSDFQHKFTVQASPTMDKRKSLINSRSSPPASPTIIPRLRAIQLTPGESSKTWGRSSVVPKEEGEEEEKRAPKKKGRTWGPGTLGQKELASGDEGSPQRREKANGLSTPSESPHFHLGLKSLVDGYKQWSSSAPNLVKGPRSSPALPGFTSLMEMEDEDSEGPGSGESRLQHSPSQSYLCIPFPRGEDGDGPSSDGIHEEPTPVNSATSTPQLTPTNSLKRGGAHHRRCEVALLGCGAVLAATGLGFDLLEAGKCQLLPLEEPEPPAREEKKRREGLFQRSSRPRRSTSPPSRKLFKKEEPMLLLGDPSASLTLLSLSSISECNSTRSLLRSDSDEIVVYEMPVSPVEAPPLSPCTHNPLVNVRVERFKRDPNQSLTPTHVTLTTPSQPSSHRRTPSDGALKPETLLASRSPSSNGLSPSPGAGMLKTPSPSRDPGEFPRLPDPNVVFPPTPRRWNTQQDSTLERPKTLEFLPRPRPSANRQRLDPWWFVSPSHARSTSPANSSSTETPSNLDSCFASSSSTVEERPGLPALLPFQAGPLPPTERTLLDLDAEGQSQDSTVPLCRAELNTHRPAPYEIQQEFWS
Method: (§1) Meanwhile, the same analogs were analyzed in a radiolabeled ATP assay (10 μM ATP; Reaction Biology Corp.) to compare the extent to which they could inhibit the activity of HGK, MLK1, or MLK3 in a cell-free environment (Table S3 and S4).

MLK3/MAP3K11 = molecular target: T2, MLK3/MAP3K11 (Homo sapiens, UniProt Q16584); assay: Radiolabeled ATP kinase assay (Reaction Biology Corp.), MLK3; format: biochemical; conditions: [Cmpd] 0.1 μM; 10 μM ATP
T2 construct: purchased Reaction Biology Corp
T2 sequence (Q16584 whole entry): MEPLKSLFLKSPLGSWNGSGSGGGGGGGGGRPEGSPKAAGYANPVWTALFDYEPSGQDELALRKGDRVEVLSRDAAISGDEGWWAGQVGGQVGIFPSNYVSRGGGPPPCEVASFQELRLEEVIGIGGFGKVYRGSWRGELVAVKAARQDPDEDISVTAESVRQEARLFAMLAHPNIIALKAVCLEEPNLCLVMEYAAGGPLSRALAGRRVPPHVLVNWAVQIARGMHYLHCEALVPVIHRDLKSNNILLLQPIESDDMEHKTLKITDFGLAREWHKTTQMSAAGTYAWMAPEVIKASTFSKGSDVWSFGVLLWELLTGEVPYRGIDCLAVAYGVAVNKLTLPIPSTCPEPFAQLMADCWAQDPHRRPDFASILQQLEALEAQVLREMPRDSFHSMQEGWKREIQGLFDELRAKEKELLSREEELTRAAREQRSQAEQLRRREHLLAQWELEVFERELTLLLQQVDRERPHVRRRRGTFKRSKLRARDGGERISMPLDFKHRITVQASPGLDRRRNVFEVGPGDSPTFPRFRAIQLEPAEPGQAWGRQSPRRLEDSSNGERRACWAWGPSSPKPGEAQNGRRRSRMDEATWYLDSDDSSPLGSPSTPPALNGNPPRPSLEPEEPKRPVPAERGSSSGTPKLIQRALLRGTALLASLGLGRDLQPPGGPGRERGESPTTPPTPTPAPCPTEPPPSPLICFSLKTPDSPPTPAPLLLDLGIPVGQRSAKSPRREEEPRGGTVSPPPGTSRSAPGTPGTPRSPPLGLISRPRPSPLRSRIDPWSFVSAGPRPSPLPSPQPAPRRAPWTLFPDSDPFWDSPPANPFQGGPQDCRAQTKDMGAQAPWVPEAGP
Method: as §1

HGK/MAP4K4 = HGK/MAP4K4 (Homo sapiens, UniProt O95819); assay: Radiolabeled ATP kinase assay (Reaction Biology Corp.), HGK; format: biochemical; set-up: purchased Reaction Biology Corp; conditions: 10 μM ATP, read-out: % Enzyme Activity (relative to DMSO controls), HGK/MAP4K4, Data 1; for remaining activity at 0.025 µM: [Cmpd] 0.025 μM; for remaining activity at 0.1 µM: [Cmpd] 0.1 μM
HGK/MAP4K4, sequence (O95819 whole entry): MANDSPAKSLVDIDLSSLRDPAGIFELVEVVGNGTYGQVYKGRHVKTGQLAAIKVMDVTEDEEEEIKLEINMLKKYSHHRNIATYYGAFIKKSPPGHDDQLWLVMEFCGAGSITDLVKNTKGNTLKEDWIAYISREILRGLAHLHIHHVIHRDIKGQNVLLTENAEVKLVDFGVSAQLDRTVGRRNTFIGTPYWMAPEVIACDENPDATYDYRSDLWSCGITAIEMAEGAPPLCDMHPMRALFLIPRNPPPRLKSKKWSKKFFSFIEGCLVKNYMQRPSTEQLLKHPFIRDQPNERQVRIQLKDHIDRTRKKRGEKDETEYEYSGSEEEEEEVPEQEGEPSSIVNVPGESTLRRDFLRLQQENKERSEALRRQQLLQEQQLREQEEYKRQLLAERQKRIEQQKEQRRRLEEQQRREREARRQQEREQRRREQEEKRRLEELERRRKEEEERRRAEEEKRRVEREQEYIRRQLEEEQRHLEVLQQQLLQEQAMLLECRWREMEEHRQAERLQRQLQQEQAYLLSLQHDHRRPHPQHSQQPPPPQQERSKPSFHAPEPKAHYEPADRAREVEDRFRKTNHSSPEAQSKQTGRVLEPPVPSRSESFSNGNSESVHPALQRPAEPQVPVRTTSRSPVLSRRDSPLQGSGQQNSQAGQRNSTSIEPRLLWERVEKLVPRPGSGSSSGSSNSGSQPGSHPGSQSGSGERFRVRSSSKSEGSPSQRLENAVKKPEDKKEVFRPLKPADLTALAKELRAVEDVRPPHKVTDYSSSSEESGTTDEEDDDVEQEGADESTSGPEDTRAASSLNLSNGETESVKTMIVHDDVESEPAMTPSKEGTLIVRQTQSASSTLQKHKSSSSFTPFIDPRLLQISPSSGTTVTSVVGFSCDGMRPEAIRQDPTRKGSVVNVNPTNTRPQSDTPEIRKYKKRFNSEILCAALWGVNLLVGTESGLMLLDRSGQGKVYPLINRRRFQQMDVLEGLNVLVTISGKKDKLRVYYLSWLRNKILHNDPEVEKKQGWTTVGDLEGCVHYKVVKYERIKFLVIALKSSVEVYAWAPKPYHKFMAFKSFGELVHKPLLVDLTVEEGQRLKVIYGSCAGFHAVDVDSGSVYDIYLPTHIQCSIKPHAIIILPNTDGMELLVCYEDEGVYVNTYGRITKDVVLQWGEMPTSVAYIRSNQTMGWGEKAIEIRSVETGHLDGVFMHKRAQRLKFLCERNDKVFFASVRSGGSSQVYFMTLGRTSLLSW
Method: as §1

[2] = read-out: % Enzyme Activity Remaining (relative to DMSO controls), MLK1/MAP3K9, Data 1
[3] = read-out: % Enzyme Activity Remaining (relative to DMSO controls), MLK1/MAP3K9, Data 2

Row | SMILES | pEC50 [1] | viability at 1 µM [1] [%] | Emax [1] [%] | remaining activity at 0.1 µM (MLK1/MAP3K9; [2]) [%] | remaining activity at 0.1 µM (MLK1/MAP3K9; [3]) [%] | % Enzyme Activity Remaining (relative to DMSO controls), MLK3/MAP3K11, Data 1 (MLK3/MAP3K11) [%] | % Enzyme Activity Remaining (relative to DMSO controls), MLK3/MAP3K11, Data 2 (MLK3/MAP3K11) [%] | remaining activity at 0.025 µM (HGK/MAP4K4) [%] | remaining activity at 0.1 µM (HGK/MAP4K4) [%] | EC50 [1]
1 | CN1CCN(Cc2ccc(-c3cnc4[nH]cc(-c5ccc(NC(=O)NC6CCCCC6)cc5)c4c3)cc2)CC1 [Compound 7aw, 1-Cyclohexyl-3-(4-(5-(4-((4-methylpiperazin-1-yl)methyl)phenyl)-1H-pyrrolo[2,3-b]pyridin-3-yl)phenyl)urea] | 6.39 | 27.5 | 27.5 | 79.8 | 79.4 | 65.23 | 66.67 | 85.4 | 58.5 | –
2 | C[C@@H](NC(=O)Nc1cccc(-c2c[nH]c3ncc(-c4ccc(CN5CCN(C)CC5)cc4)cc23)c1)c1ccccc1 [Compound 7ax, (R)-1-(3-(5-(4-((4-methylpiperazin-1-yl)methyl)phenyl)-1H-pyrrolo[2,3-b]pyridin-3-yl)phenyl)-3-(1-phenylethyl)urea] | 5.84 | 17.4 | 35.5 | 93.5 | 92.3 | 90.99 | 86.58 | 93.6 | 78.7 | –
3 | CN1CCN(Cc2ccc(-c3cnc4[nH]cc(-c5cccc(NC(=O)NCc6ccco6)c5)c4c3)cc2)CC1 [Compound 7ay, 1-(Furan-2-ylmethyl)-3-(3-(5-(4-((4-methylpiperazin-1-yl)methyl)phenyl)-1H-pyrrolo[2,3-b]pyridin-3-yl)phenyl)urea] | 7.04 | 4.58 | 9.29 | 88.5 | 91.8 | 84.43 | 83.57 | 93.8 | 79 | –
4 | COCCNC(=O)Nc1cccc(-c2c[nH]c3ncc(-c4ccc(CN5CCN(C)CC5)cc4)cc23)c1 [Compound 7az, 1-(2-Methoxyethyl)-3-(3-(5-(4-((4-methylpiperazin-1-yl)methyl)phenyl)-1H-pyrrolo[2,3-b]pyridin-3-yl)phenyl)urea] | 5.52 | 22.9 | 51.5 | 79 | 78.5 | 79.28 | 80.78 | 87.1 | 65 | –
5 | CCOc1ccc(-c2c[nH]c3ncc(-c4ccc(CN5CCN(C)CC5)cc4)cc23)cn1 [Compound 7b, 3-(6-Ethoxypyridin-3-yl)-5-(4-((4-methylpiperazin-1-yl)methyl)phenyl)-1H-pyrrolo[2,3-b]pyridine] | 6.30 | 52.3 | 52.3 | 89.2 | 87.8 | 86.71 | 86.95 | 77.6 | 42.8 | –
6 | CN1CCN(Cc2ccc(-c3cnc4[nH]cc(-c5cccc6c5oc5ccccc56)c4c3)cc2)CC1 [Compound 7c, 3-(Dibenzo[b,d]furan-4-yl)-5-(4-((4-methylpiperazin-1-yl)methyl)phenyl)-1H-pyrrolo[2,3-b]pyridine] | – | 7.84 | 10.4 | 88.3 | 86.8 | 90.01 | 93.44 | 99.3 | 81.6 | Ambiguous
7 | CN1CCN(Cc2ccc(-c3cnc4[nH]cc(-c5ccc(N)cc5)c4c3)cc2)CC1 [Compound 7e, 4-(5-(4-((4-Methylpiperazin-1-yl)methyl)phenyl)-1H-pyrrolo[2,3-b]pyridin-3-yl)aniline] | 6.64 | 96.1 | 111 | 51.7 | 54 | 51.43 | 54.29 | 24 | 7.41 | –
8 | CN1CCN(Cc2ccc(-c3cnc4[nH]cc(-c5csc6ccccc56)c4c3)cc2)CC1 [Compound 7f, 3-(Benzo[b]thiophen-3-yl)-5-(4-((4-methylpiperazin-1-yl)methyl)phenyl)-1H-pyrrolo[2,3-b]pyridine] | 6.47 | 68.3 | 68.3 | 81.1 | 76.5 | 68.84 | 73.51 | 23.2 | 4.89 | –
9 | CN1CCN(Cc2ccc(-c3cnc4[nH]cc(-c5cccc(N)c5)c4c3)cc2)CC1 [Compound 7h, 3-(5-(4-((4-Methylpiperazin-1-yl)methyl)phenyl)-1H-pyrrolo[2,3-b]pyridin-3-yl)aniline] | 6.75 | 106 | 115 | 48.8 | 43.2 | 62.91 | 63.31 | 98.8 | 87.4 | –
10 | CN1CCN(Cc2ccc(-c3cnc4[nH]cc(-c5ccc(F)c(C(=O)O)c5)c4c3)cc2)CC1 [Compound 7i, 2-Fluoro-5-(5-(4-((4-methylpiperazin-1-yl)methyl)phenyl)-1H-pyrrolo[2,3-b]pyridin-3-yl)benzoic acid] | – | 7.82 | 13.3 | 80.2 | 79.4 | 57.91 | 50.75 | 85.3 | 54.6 | Ambiguous
11 | CN1CCN(Cc2ccc(-c3cnc4[nH]cc(-c5cnc(N)nc5)c4c3)cc2)CC1 [Compound 7k, 5-(5-(4-((4-Methylpiperazin-1-yl)methyl)phenyl)-1H-pyrrolo[2,3-b]pyridin-3-yl)pyrimidin-2-amine] | 6.50 | 71 | 71 | 69 | 70.8 | 71.64 | 75.32 | 48.3 | 16.5 | –
12 | Cc1cc(-c2c[nH]c3ncc(-c4ccc(CN5CCN(C)CC5)cc4)cc23)cnc1N [Compound 7l, 3-Methyl-5-(5-(4-((4-methylpiperazin-1-yl)methyl)phenyl)-1H-pyrrolo[2,3-b]pyridin-3-yl)pyridin-2-amine] | 6.75 | 106 | 106 | 53.2 | 52.4 | 58.50 | 57.04 | 27 | 5.45 | –
